Reference: US20250296959A1, “B7-H3 TARGETING PEPTIDES AND CONSTRUCTS THEREOF” (Mariana Oncology Inc., priority 2024, published 2025)
Starred links: 1 amine or outer side, 2 acyl side, 3 side chain; linkers in the order of their positions; H or OH if unused. Positions of bridges follow the written chain, without caps; N, C: chain ends. Non-standard residues stand in square brackets, D forms with d. Residues, ends and D or L forms follow the SMILES beside them. Groups on a side chain read outwards from the residue. *: point of attachment. X6 = CSCC[C@H](NC(=O)c1ccc(CNC(=O)CN2CCN(CC(=O)O)CCN(CC(=O)O)CCN(CC(=O)O)CC2)cc1)C(=O)N[C@H](C(=O)N[C@@H](CCCCN*)C(=O)O)C(C)C; X7 = O=C(O)CN1CCN(CC(=O)O)CCN(CC(=O)NCCOCCOCCOCCOCCOCCOCCOCCOCC(=O)*)CCN(CC(=O)O)CC1; X9 = CC(=O)N[C@@H](CCC(C)C)C(O)N([C@@H](Cc1ccc(O)cc1)C(=O)[*:2])[*:1]; Ala(piperidin-4-yl) = O=C([C@H](CC1CCN([*:3])CC1)N[*:1])[*:2]; DOTA = O=C(O)CN1CCN(CC(=O)O)CCN(CC(=O)*)CCN(CC(=O)O)CC1; Phe(4-NHCONH2) = NC(=O)Nc1ccc(C[C@H](N)C(=O)O)cc1; Trp(5-F) = N[C@@H](Cc1c[nH]c2ccc(F)cc12)C(=O)O; X1 = C[C@@H](c1ccccc1)[C@H](N[*:1])C(=O)[*:2]; X11 = O=C(CCCc1ccc(I)cc1)NCCOCCOCCOCCOCC(=O)*; γGlu = O=C(O)[C@H](CCC(=O)[*:2])N[*:1]; 1Nal = N[C@@H](Cc1cccc2ccccc12)C(=O)O; Ala(4-THP) = N[C@@H](CC1CCOCC1)C(=O)O; Val(3-OH) = CC(C)(O)[C@H](N)C(=O)O; Trx = NC[C@H]1CC[C@H](C(=O)O)CC1; 4Pal = N[C@@H](Cc1ccncc1)C(=O)O; Cha = N[C@@H](CC1CCCCC1)C(=O)O; Chg = N[C@H](C(=O)O)C1CCCCC1; Tle = CC(C)(C)[C@H](N)C(=O)O; hLeu = CC(C)CC[C@H](N)C(=O)O; NMeS = CN[C@@H](CO)C(=O)O; αMeS = C[C@](N)(CO)C(=O)O; Nle = CCCC[C@H](N)C(=O)O

molecular target: T1, human 4lg B7-H3 (Homo sapiens, UniProt Q5ZPR3); assay: Affinity determination by surface plasmon resonance (SPR) to 4Ig B7-H3; settings: SPR KD—25° C., 4Ig B7-H3; 25° C. flow cell temperature
T1 sequence (Q5ZPR3 29-534): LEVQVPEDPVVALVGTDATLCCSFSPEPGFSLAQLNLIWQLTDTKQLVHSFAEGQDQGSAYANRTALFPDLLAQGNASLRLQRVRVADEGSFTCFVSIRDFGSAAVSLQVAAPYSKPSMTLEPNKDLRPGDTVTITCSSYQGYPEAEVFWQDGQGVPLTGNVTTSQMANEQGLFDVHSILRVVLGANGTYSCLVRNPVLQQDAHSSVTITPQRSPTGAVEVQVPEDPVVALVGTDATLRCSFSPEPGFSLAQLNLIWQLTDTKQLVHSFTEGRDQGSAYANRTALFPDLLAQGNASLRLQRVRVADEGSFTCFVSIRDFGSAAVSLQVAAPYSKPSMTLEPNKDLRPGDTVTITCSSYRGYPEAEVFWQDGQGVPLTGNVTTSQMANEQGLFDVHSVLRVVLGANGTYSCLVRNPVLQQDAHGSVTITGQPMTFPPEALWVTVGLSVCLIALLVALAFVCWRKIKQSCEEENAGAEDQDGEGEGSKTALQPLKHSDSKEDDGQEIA

SMILES | Kd [nM]
CC(=O)N[C@@H](CCC(C)C)C(=O)N[C@@H](Cc1ccc(O)cc1)C(=O)N[C@H]1CSSC[C@@H](C(=O)N[C@@H](Cc2c[nH]c3ccc(F)cc23)C(=O)N[C@@H](Cc2ccccc2)C(=O)N[C@H](C(=O)N[C@H](CCCCNC(=O)CN2CCN(CC(=O)O)CCN(CC(=O)O)CCN(CC(=O)O)CC2)C(=O)O)[C@@H](C)O)NC(=O)[C@H](Cc2ccc(O)cc2)NC(=O)[C@H](C(C)C)NC(=O)[C@H](CC(=O)O)NC(=O)[C@H](CC2CCOCC2)NC(=O)[C@H](CCCCN)NC(=O)CNC(=O)[C@H](C(C)C)NC1=O [compound 331, Ac-hLeu-Y-C-V-G-K-ThpA-D-V-Y-C-5FW-F-Thr-dLys(DOTA)-COOH] (Ac-[hLeu]YCVGK[Ala(4-THP)]DVYC[Trp(5-F)]FT[dK](DOTA)-OH; disulfide 3-11) | < 1
CC(=O)N[C@@H](CCC(C)C)C(=O)N[C@@H](Cc1ccc(O)cc1)C(=O)N[C@H]1CSSC[C@@H](C(=O)N[C@@H](Cc2c[nH]c3ccccc23)C(=O)N[C@@H](Cc2ccccc2)C(=O)N[C@H](C(=O)N[C@H](CCCCNC(=O)CN2CCN(CC(=O)O)CCN(CC(=O)O)CCN(CC(=O)O)CC2)C(N)=O)[C@@H](C)O)NC(=O)[C@H](Cc2ccc(O)cc2)NC(=O)[C@H](C2CCCCC2)NC(=O)[C@H](CC(=O)O)NC(=O)[C@H](Cc2ccncc2)NC(=O)[C@H](CCCCN)NC(=O)CNC(=O)[C@H](C(C)(C)C)NC1=O [compound 152, Ac-hLeu-Y-C-Tbg-G-K-4PyA-D-ChG-Y-C-W-F-Thr-dLys(DOTA)-CONH2] (Ac-[hLeu]YC[Tle]GK[4Pal]D[Chg]YCWFT[dK](DOTA)-NH2; disulfide 3-11) | < 1
CC(=O)N[C@@H](CCC(C)C)C(=O)N[C@@H](Cc1ccc(O)cc1)C(=O)N[C@H]1CSSC[C@@H](C(=O)N[C@@H](Cc2c[nH]c3ccc(F)cc23)C(=O)N[C@@H](Cc2ccccc2)C(=O)N[C@@](C)(CO)C(=O)N[C@H](CCCCNC(=O)CN2CCN(CC(=O)O)CCN(CC(=O)O)CCN(CC(=O)O)CC2)C(N)=O)NC(=O)[C@H](Cc2ccc(O)cc2)NC(=O)[C@H](C(C)C)NC(=O)[C@H](CC(=O)O)NC(=O)[C@H](Cc2ccc(O)cc2)NC(=O)[C@H](CCCCN)NC(=O)CNC(=O)[C@H](C(C)C)NC1=O [compound 147, Ac-hLeu-Y-C-V-G-K-Y-D-V-Y-C-5FW-F-aMeSer-dLys(DOTA)-CONH2] (Ac-[hLeu]YCVGKYDVYC[Trp(5-F)]F[αMeS][dK](DOTA)-NH2; disulfide 3-11) | 1 to 10
CCCC[C@H](NC(C)=O)C(=O)N[C@@H](Cc1ccc(O)cc1)C(=O)N[C@H]1CSSC[C@@H](C(=O)N[C@@H](Cc2c[nH]c3ccccc23)C(=O)N[C@@H](Cc2ccccc2)C(=O)N[C@@H](CCCCN)C(=O)N[C@H](CCCCNC(=O)CN2CCN(CC(=O)O)CCN(CC(=O)O)CCN(CC(=O)O)CC2)C(N)=O)NC(=O)[C@H](Cc2ccc(O)cc2)NC(=O)[C@H](C(C)C)NC(=O)[C@H](CC(=O)O)NC(=O)[C@H](Cc2ccc(O)cc2)NC(=O)[C@H](CCCCN)NC(=O)CNC(=O)[C@H](C(C)C)NC1=O [compound 86, Ac-Nle-Y-C-V-G-K-Y-D-V-Y-C-W-F-Lys-dLys(DOTA)-CONH2] (Ac-[Nle]YCVGKYDVYCWFK[dK](DOTA)-NH2; disulfide 3-11) | 10 to 100
CC(=O)N[C@@H](CCC(C)C)C(=O)N[C@H](C(=O)N[C@H]1CSSC[C@@H](C(=O)N[C@@H](Cc2c[nH]c3ccc(F)cc23)C(=O)N[C@@H](Cc2ccccc2)C(=O)N(C)[C@@H](CO)C(=O)N[C@H](CCCCNC(=O)CN2CCN(CC(=O)O)CCN(CC(=O)O)CCN(CC(=O)O)CC2)C(N)=O)NC(=O)[C@H](Cc2ccc(O)cc2)NC(=O)[C@H](C(C)C)NC(=O)[C@H](CC(=O)O)NC(=O)[C@H](Cc2ccc(O)cc2)NC(=O)[C@H](CC2CCNCC2)NC(=O)CNC(=O)[C@H](C(C)C)NC1=O)C1CCCCC1 [compound 212, Ac-hLeu-Chg-C-V-G-PipAla-Y-D-V-Y-C-5FW-F-NMeSer-dLys(DOTA)-CONH2] (Ac-[hLeu][Chg]CVG[Ala(piperidin-4-yl)]YDVYC[Trp(5-F)]F[NMeS][dK](DOTA)-NH2; disulfide 3-11) | 100 to 300
CC(=O)N[C@@H](CCC(C)C)C(O)N[C@@H](Cc1ccc(O)cc1)C(=O)N[C@H]1CSSC[C@@H](C(=O)N[C@@H](Cc2cccc3ccccc23)C(=O)N[C@@H](Cc2ccccc2)C(=O)N2CCC[C@H]2C(=O)N[C@H](CCCCNC(=O)COCCOCCOCCOCCOCCOCCOCCOCCNC(=O)CN2CCN(CC(=O)O)CCN(CC(=O)O)CCN(CC(=O)O)CC2)C(N)=O)NC(=O)[C@H](Cc2ccc(O)cc2)NC(=O)[C@H](C(C)C)NC(=O)[C@H](CC(=O)O)NC(=O)[C@H](CC2CCCCC2)NC(=O)[C@H](CC2CCNCC2)NC(=O)CNC(=O)[C@H](C(C)(C)C)NC1=O (stereo partly drawn) [compound 281, Ac-hLeu-Y-C-Tbg-G-PipAla-CHA-D-V-Y-C-1Nal-F-Pro-dLys(PEG8-DOTA)-CONH2] (H-[X9]C[Tle]G[Ala(piperidin-4-yl)][Cha]DVYC[1Nal]FP[dK](X7)-NH2; disulfide 2-10) | 1 to 10

same assay, conditions: SPR KD—37° C., 4Ig B7-H3; 37° C. flow cell temperature

SMILES | Kd [nM]
CC(=O)N[C@@H](CCC(C)C)C(=O)N[C@@H](Cc1ccc(O)cc1)C(=O)N[C@H]1CSSC[C@@H](C(=O)N[C@@H](Cc2c[nH]c3ccc(F)cc23)C(=O)N[C@H](C(=O)N[C@H](C(=O)N[C@H](CCCCNC(=O)CN2CCN(CC(=O)O)CCN(CC(=O)O)CCN(CC(=O)O)CC2)C(=O)N[C@H](CCC(=O)O)C(=O)O)C(C)(C)O)[C@@H](C)c2ccccc2)NC(=O)[C@H](Cc2ccc(NC(N)=O)cc2)NC(=O)[C@H](C(C)C)NC(=O)[C@H](CC(=O)O)NC(=O)[C@H](CC2CCOCC2)NC(=O)[C@H](CC2CCNCC2)NC(=O)CNC(=O)[C@H](C(C)(C)C)NC1=O [compound 508, Ac-hLeu-Y-C-Tbg-G-PipAla-ThpA-D-V-Aph(Cbm)-C-5FW-[(2S, 3S)beta-Me-Phe]-hydroxyVal-dLys(DOTA)-dGlu-COOH] (Ac-[hLeu]YC[Tle]G[Ala(piperidin-4-yl)][Ala(4-THP)]DV[Phe(4-NHCONH2)]C[Trp(5-F)][X1][Val(3-OH)][dK](DOTA)[dE]-OH; disulfide 3-11) | < 1
CC(=O)N[C@@H](CCC(C)C)C(=O)N[C@@H](Cc1ccc(O)cc1)C(=O)N[C@H]1CSSC[C@@H](C(=O)N[C@@H](Cc2c[nH]c3ccc(F)cc23)C(=O)N[C@@H](Cc2ccccc2)C(=O)N[C@H](C(=O)N[C@H](CCCCNC(=O)CC[C@H](NC(=O)[C@H]2CC[C@H](CNC(=O)CN3CCN(CC(=O)O)CCN(CC(=O)O)CCN(CC(=O)O)CC3)CC2)C(=O)O)C(=O)O)C(C)(C)O)NC(=O)[C@H](Cc2ccc(O)cc2)NC(=O)[C@H](C(C)C)NC(=O)[C@H](CC(=O)O)NC(=O)[C@H](CC2CCOCC2)NC(=O)[C@H](CC2CCNCC2)NC(=O)CNC(=O)[C@H](C(C)(C)C)NC1=O [compound 481, Ac-hLeu-Y-C-Tbg-G-PipAla-ThpA-D-V-Y-C-5FW-F-hydroxyVal-dLys(gE-tranexamate-DOTA)-COOH] (Ac-[hLeu]YC[Tle]G[Ala(piperidin-4-yl)][Ala(4-THP)]DVYC[Trp(5-F)]F[Val(3-OH)][dK]([γGlu-Trx-DOTA])-OH; disulfide 3-11) | < 1
CC(=O)N[C@@H](CCC(C)C)C(=O)N[C@@H](Cc1ccc(O)cc1)C(=O)N[C@H]1CSSC[C@@H](C(=O)N[C@@H](Cc2c[nH]c3ccc(F)cc23)C(=O)N[C@@H](Cc2ccccc2)C(=O)N[C@H](C(=O)N[C@H](CCCCNC(=O)CN2CCN(CC(=O)O)CCN(CC(=O)O)CCN(CC(=O)O)CC2)C(=O)O)C(C)(C)O)NC(=O)[C@H](Cc2ccc(O)cc2)NC(=O)[C@H](C(C)C)NC(=O)[C@H](CC(=O)O)NC(=O)[C@H](CC2CCOCC2)NC(=O)[C@H](CC2CCN(C(=O)COCCOCCOCCOCCNC(=O)CCCc3ccc(I)cc3)CC2)NC(=O)CNC(=O)[C@H](C(C)(C)C)NC1=O [Cpd #364, Ac-hLeu-Y-C-Tbg-G-Pip(PEG4-AB)Ala-ThpA-D-V-Y-C-5FW-F-hydroxyVal-dLys(DOTA)-COOH] (Ac-[hLeu]YC[Tle]G[Ala(piperidin-4-yl)](X11)[Ala(4-THP)]DVYC[Trp(5-F)]F[Val(3-OH)][dK](DOTA)-OH; disulfide 3-11) | 1 to 10
CSCC[C@H](NC(=O)c1ccc(CNC(=O)CN2CCN(CC(=O)O)CCN(CC(=O)O)CCN(CC(=O)O)CC2)cc1)C(=O)N[C@H](C(=O)N[C@@H](CCCCNC(=O)CC[C@@H]1NC(=O)[C@H](CC2CCNCC2)NC(=O)CNC(=O)[C@H](C(C)(C)C)NC(=O)[C@@H](NC(=O)[C@H](Cc2ccc(O)cc2)NC(=O)[C@H](CCC(C)C)NC(C)=O)CSSC[C@@H](C(=O)N[C@@H](Cc2c[nH]c3ccc(F)cc23)C(=O)N[C@H](C(=O)N[C@H](C(=O)N[C@H](CO)C(=O)O)C(C)(C)O)[C@@H](C)c2ccccc2)NC(=O)[C@H](Cc2ccc(O)cc2)NC(=O)[C@H](C(C)C)NC(=O)[C@H](CC(=O)O)NC1=O)C(=O)O)C(C)C [Cpd #518, Ac-hLeu-Y-C-Tbg-G-PipAla-Glu[&Lys(OH)-Val-Met-AmBz-DOTA]-D-V-Y-C-5FW-[(2S, 3S)beta-Me-Phe]-hydroxyVal-dSer-COOH] (Ac-[hLeu]YC[Tle]G[Ala(piperidin-4-yl)]E(X6)DVYC[Trp(5-F)][X1][Val(3-OH)][dS]-OH; disulfide 3-11) | < 1
